Consider one cell line from the supplement of paper PMC10307832.

Assay in all cases: relative viability (nuclei count vs DMSO), 5 days (fraction); higher = more cells survive
Compound in the test “IU1-47 + Olaparib”: CC1=CC(=C(N1C2=CC=C(C=C2)Cl)C)C(=O)CN3CCCCC3 [IU1-47] + O=C(c1cc(Cc2n[nH]c(=O)c3ccccc23)ccc1F)N1CCN(C(=O)C2CC2)CC1 [Olaparib] (partner 8 µM)
Summed up:
(§1)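 After 5 days of treatment, lung cancer cells in 1536-well plates were fixed and stained in a single step (final 0.05% Triton X-100, 1% formaldehyde, 1 ug/ml Hoechst) and their nuclei counted on 4× images. Treatment had been applied by pin tool the day after seeding as one drug alone or as a fixed anchor-drug dose with five library-drug doses (not always all listed) in √10 steps. Relative viability is the nuclei count of treated wells divided by that of vehicle wells, and values are medians of duplicate plates.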

Compound in the test “IU1-47 + Navitoclax”: CC1=CC(=C(N1C2=CC=C(C=C2)Cl)C)C(=O)CN3CCCCC3 [IU1-47] + CC1(C)CCC(c2ccc(Cl)cc2)=C(CN2CCN(c3ccc(C(=O)NS(=O)(=O)c4ccc(N[C@H](CCN5CCOCC5)CSc5ccccc5)c(S(=O)(=O)C(F)(F)F)c4)cc3)CC2)C1 [Navitoclax] (partner 0.5 µM)
The method, boiled down:
as §1

Compound in the test “IU1-47 + Pictilisib”: CC1=CC(=C(N1C2=CC=C(C=C2)Cl)C)C(=O)CN3CCCCC3 [IU1-47] + CS(=O)(=O)N1CCN(Cc2cc3nc(-c4cccc5[nH]ncc45)nc(N4CCOCC4)c3s2)CC1 [Pictilisib] (partner 1 µM)
The method, boiled down:
as §1

Compound in the test “FG-4592 + Dasatinib”: Cc1nc(C(=O)NCC(=O)O)c(O)c2ccc(Oc3ccccc3)cc12 [FG-4592] + Cc1nc(Nc2ncc(C(=O)Nc3c(C)cccc3Cl)s2)cc(N2CCN(CCO)CC2)n1 [Dasatinib] (partner 0.075 µM)
The method, boiled down: as §1

Turning to UMC-11, the relative viability in the test with IU1-47 + Olaparib (first compound 0.08 µM) worked out at 0.402; with IU1-47 + Olaparib (first compound 0.253 µM), 0.429; in the test with IU1-47 + Olaparib (first compound 0.8 µM), 0.368; in the test with IU1-47 + Olaparib (first compound 2.53 µM), 0.328; with IU1-47 + Olaparib (first compound 8 µM) it was 0.373; with IU1-47 + Navitoclax (first compound 0.08 µM) it was 0.297. Besides, the relative viability with IU1-47 + Navitoclax (first compound 0.253 µM) was 0.315; with IU1-47 + Navitoclax (first compound 0.8 µM), 0.329; with IU1-47 + Navitoclax (first compound 2.53 µM), 0.349; with IU1-47 + Navitoclax (first compound 8 µM) it was 0.313; with IU1-47 + Pictilisib (first compound 0.08 µM), 0.678; in the test with IU1-47 + Pictilisib (first compound 0.253 µM), 0.75. Further, the relative viability in the test with IU1-47 + Pictilisib (first compound 0.8 µM) amounted to 0.868; in the test with IU1-47 + Pictilisib (first compound 2.53 µM), 1.01; with IU1-47 + Pictilisib (first compound 8 µM), 0.743; with FG-4592 + Dasatinib (first compound 0.08 µM), 0.439; with FG-4592 + Dasatinib (first compound 0.253 µM), 0.46; with FG-4592 + Dasatinib (first compound 0.8 µM), 0.447. In addition, the relative viability with FG-4592 + Dasatinib (first compound 2.53 µM) turned out to be 0.417; with FG-4592 + Dasatinib (first compound 8 µM), 0.493.
